Measured values taken from PubChem BioAssay AID977613 (Broad Institute, 2014).
The source made the active and inactive calls. No rule for the calls is given here.

Tested on: Broad 7084-01 inhibitor HTS, set 2
Assay: inhibitors in Broad screen 7084-01, set 2 (AID 977613);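 also: host cells are infected with parasite promastigotes that become internalized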

SMILES	active concentration
O=C(CN1CCOCC1)N1CCCCN2[C@H](CO)[C@@H](c3ccc(Br)cc3)[C@@H]2C1	> 10 µM (inactive)
O=C(c1cccc(F)c1)N1CCCCN2[C@@H](CO)[C@@H](c3ccc(C#CC4(O)CCCC4)cc3)[C@@H]2C1	> 10 µM (inactive)
COCC(=O)N1[C@H](CO)[C@H]2c3ccccc3NC[C@H]21	> 10 µM (inactive)
O=C(C[C@H]1CC[C@@H]2[C@H](COC[C@H](O)CN2C(=O)C2CC2)O1)NCc1ccncc1	> 10 µM (inactive)
COc1ccc(C#Cc2ccc([C@H]3[C@H]4CN(C(=O)c5ccc(F)cc5)CC(=O)N4[C@H]3CO)cc2)cc1	> 10 µM (inactive)
CC(C)NC(=O)N1[C@H](CO)[C@H](c2ccccc2)C12CN(C(=O)Cc1cccnc1)C2	> 10 µM (inactive)
CCN1[C@@H]2c3ccc(-c4ccccc4F)c(=O)n3C[C@H]1[C@H](CO)[C@H]2C(=O)NCc1ccc(F)cc1	> 10 µM (inactive)
O=C(C[C@H]1CC[C@@H]2[C@H](COC[C@@H](O)CN2Cc2ccccc2)O1)NCCc1ccccc1	> 10 µM (inactive)
CCS(=O)(=O)N1CCC2(CC1)CN[C@@H](CO)c1[nH]c3cc(OC)ccc3c12	> 10 µM (inactive)
CN1C(=O)c2cc(NS(C)(=O)=O)ccc2OC[C@@H]2O[C@H](CC(=O)NC3CCCCC3)CC[C@H]21	> 10 µM (inactive)
COCCNC(=O)[C@@H]1[C@@H](CO)[C@@H]2Cn3c(cccc3=O)[C@H]1N2S(=O)(=O)c1ccccc1C	> 10 µM (inactive)
N#C[C@H]1[C@@H](c2ccccc2C2=CCCCC2)[C@H](CO)N1C(=O)C1CCOCC1	> 10 µM (inactive)
COc1cccc(NC(=O)N2C[C@@H](O)COC[C@@H]3O[C@@H](CC(=O)NC4CCC4)CC[C@H]32)c1	> 10 µM (inactive)
COC(=O)C[C@H]1CC[C@@H]2[C@H](COc3ccc(NS(=O)(=O)c4ccccc4Cl)cc3C(=O)N2C)O1	> 10 µM (inactive)
O=C(C[C@H]1CC[C@H]2[C@@H](COC[C@H](O)CN2C(=O)Nc2cc(Cl)cc(Cl)c2)O1)NCC1CCCCC1	> 10 µM (inactive)
Cc1ccc(NC(=O)Nc2ccc3c(c2)C(=O)N(C)[C@@H]2CC[C@H](CC(=O)NCC(F)(F)F)O[C@@H]2CO3)cc1	> 10 µM (inactive)
OC[C@@H]1[C@@H]2c3ccccc3NC[C@@H]2N1Cc1cccnc1	> 10 µM (inactive)
CCCN1[C@H](C(=O)Nc2nccs2)[C@@H](CO)[C@@H]2Cn3c(ccc(-c4ccccc4OC)c3=O)[C@@H]21	> 10 µM (inactive)
N#Cc1cccc(-c2ccc3c(c2)[C@@H]2[C@@H](CCN2S(=O)(=O)c2ccc(F)cc2)[C@H](CO)N3)c1	> 10 µM (inactive)
C/C=C/c1ccc2c(c1)[C@@H]1[C@@H](CCN1C(=O)Cc1cccnc1)[C@@H](CO)N2C	> 10 µM (inactive)
CC(=O)N1CCCCN2[C@@H](CO)[C@@H](c3ccc(-c4ccccc4)cc3)[C@@H]2C1	> 10 µM (inactive)
COC(=O)[C@H]1[C@H](CO)[C@H]2Cn3c(ccc(-c4cccc(OC)c4)c3=O)[C@H]2N1Cc1nccs1	> 10 µM (inactive)
CC(C)NC(=O)Nc1ccc2c(c1)C(=O)N(C)[C@@H]1CC[C@H](CC(=O)NCc3ccc(F)cc3)O[C@@H]1CO2	> 10 µM (inactive)
O=C(C[C@H]1CC[C@H]2[C@@H](COC[C@@H](O)CN2Cc2ccc(Cl)cc2)O1)NCc1ccccc1Cl	> 10 µM (inactive)
O=C(O)[C@H]1[C@H](CO)[C@H]2Cn3c(ccc(-c4ccc(F)cc4)c3=O)[C@@H]1N2CC1CCCCC1	> 10 µM (inactive)

SMILES	active concentration
O=C(C[C@@H]1CC[C@H]2[C@@H](COC[C@H](O)CN2C(=O)Nc2ccc(C(F)(F)F)cc2)O1)NCC1CC1	> 10 µM (inactive)
O=C(C[C@H]1CC[C@@H]2[C@H](COC[C@@H](O)CN2Cc2cc(F)ccc2F)O1)NCc1ccc(F)cc1	> 10 µM (inactive)
Cc1ccc(NC(=O)Nc2ccc3c(c2)C(=O)N(C)[C@@H]2CC[C@@H](CC(=O)NCC(F)(F)F)O[C@@H]2CO3)cc1	> 10 µM (inactive)
CCC(=O)N1CC(=O)N2[C@H](CO)[C@H](c3ccc(-c4ccc(C#N)cc4)cc3)[C@H]2C1	> 10 µM (inactive)
CCS(=O)(=O)Nc1ccc2c(c1)C(=O)N(C)[C@H]1CC[C@H](CC(=O)N[C@@H]3CCN(Cc4ccccc4)C3)O[C@H]1CO2	> 10 µM (inactive)
CN(C)CC(=O)N1CCCCN2[C@H](C1)[C@H](c1ccc(/C=C/c3ccccc3)cc1)[C@@H]2CO	> 10 µM (inactive)
O=S(=O)(c1ccc(F)cc1)N1CCCCN2[C@@H](CO)[C@@H](c3ccc(-c4cncnc4)cc3)[C@@H]2C1	> 10 µM (inactive)
COc1ccc(-c2ccc([C@@H]3[C@H]4CN(C(=O)Cc5ccncc5)CCCCN4[C@H]3CO)cc2)cc1	> 10 µM (inactive)
COCC(=O)N1CC[C@@H]2[C@H]1c1cc(-c3ccc(F)cc3)ccc1N(C)[C@@H]2CO	> 10 µM (inactive)
COCC(=O)N1CC2(CCN(Cc3cccnc3)CC2)c2c(n(C)c3cc(OC)ccc23)[C@@H]1CO	> 10 µM (inactive)
CC(=O)N1CC2(C1)[C@H](c1ccc(-c3cccc(C#N)c3)cc1)[C@H](CO)N2CCC(F)(F)F	> 10 µM (inactive)
O=C(C[C@@H]1CC[C@@H]2[C@H](COC[C@H](O)CN2Cc2nccs2)O1)NCc1ccccc1	> 10 µM (inactive)
O=C(C[C@@H]1CC[C@@H]2[C@H](COC[C@H](O)CN2Cc2ccccc2)O1)NCCc1ccccc1	> 10 µM (inactive)
O=C(C[C@@H]1CC[C@H]2[C@@H](COC[C@@H](O)CN2Cc2cccc(C(F)(F)F)c2)O1)NCc1ccccc1	> 10 µM (inactive)
O=C(CC1CC1)N1[C@H](CO)[C@@H]2c3ccccc3N(S(=O)(=O)c3ccccc3F)C[C@@H]21	> 10 µM (inactive)
CN1C[C@H]2[C@@H](c3ccccc31)[C@H](CO)N2Cc1ccccc1Cl	> 10 µM (inactive)
O=C(C1CCCCC1)N1CC(=O)N2[C@H](CO)[C@H](c3ccc(-c4ccccc4F)cc3)[C@@H]2C1	> 10 µM (inactive)
Cc1ccccc1-c1ccc([C@@H]2[C@@H](CO)N3C(=O)CN(S(C)(=O)=O)C[C@@H]23)cc1	> 10 µM (inactive)
CCNC(=O)Nc1ccc2c(c1)C(=O)N(C)[C@@H]1CC[C@@H](CC(=O)N[C@H](C)c3ccccc3)O[C@H]1CO2	> 10 µM (inactive)
O=C(Nc1ccccc1F)N1CC(=O)N2[C@@H](CO)[C@H](c3ccc(-c4cccnc4)cc3)[C@@H]2C1	> 10 µM (inactive)
OC[C@H]1[C@H]2c3ccccc3NC[C@H]2N1Cc1cccnc1	> 10 µM (inactive)
Cc1noc(C)c1NC(=O)N1C[C@H](O)COC[C@H]2O[C@@H](CC(=O)NCC3CCCCC3)CC[C@@H]21	> 10 µM (inactive)
CCC(=O)N1[C@@H](CO)[C@@H](c2ccccc2)C12CN(C(=O)c1ccc3c(c1)OCO3)C2	> 10 µM (inactive)
O=C(c1ccccn1)N1CC[C@@H]2[C@@H](CO)Nc3ccc(Br)cc3[C@@H]21	> 10 µM (inactive)
CCS(=O)(=O)N1CC2(CN(Cc3cc(F)ccc3F)[C@H](CO)c3c2c2ccc(OC)cc2n3C)C1	> 10 µM (inactive)
